Assay results reported in ChEMBL document CHEMBL1201862, “PubChem BioAssay data set” (2004).
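Compound exposure: 48 hours, 5 concentrations, 96-well plates. GI50 marks 50% less growth.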 Calls of active or inactive are those of the source. Cut-off read from the data, not from the text of the source: active = GI50 up to about 1.1 µM and inactive = higher.

How the values were obtained:
Test in all cases: growth of human tumour cells (NCI), 48 h
LXFL 529 = system: LXFL 529
HOP-18 = system: HOP-18
Hs-578T = system: Hs-578T
T47D = system: T47D
786-0 = system: 786-0
BT-549 = system: BT-549
DU-145 = system: DU-145
MDA-MB-231 = system: MDA-MB-231
RXF 631 = system: RXF 631

Structure (SMILES): O=C(NN1C(=O)C(Cl)C1c1ccc([N+](=O)[O-])cc1)c1ccccc1O (stereo not given)
- GI50 (LXFL 529): > 100 µM (inactive)

Structure (SMILES): Nc1c(S(=O)(=O)O)cc2cc(S(=O)(=O)O)ccc2c1/N=N/c1ccc(-c2ccc(/N=N/c3c(N)c(S(=O)(=O)O)cc4cc(S(=O)(=O)O)ccc34)c(S(=O)(=O)O)c2)cc1
- GI50 (HOP-18): > 100 µM (inactive)

Structure (SMILES): CC(C)N1CSC(=S)N(Cc2ccccc2)C1
- GI50 (Hs-578T): > 10 µM (inactive)
- GI50 (T47D): 4.29 µM (inactive)

Structure (SMILES): COc1cc2cc3c4cc(OC)c(OC)cc4cc[n+]3cc2cc1OC
- GI50 (HOP-18): > 100 µM (inactive)

Structure (SMILES): S=CN1CCCCC1
- GI50 (786-0): > 100 µM (inactive)
- GI50 (BT-549): > 100 µM (inactive)
- GI50 (DU-145): > 100 µM (inactive)
- GI50 (Hs-578T): > 100 µM (inactive)
- GI50 (MDA-MB-231): > 100 µM (inactive)
- GI50 (T47D): > 100 µM (inactive)

Structure (SMILES): N#C/C(=C\NC(=S)Nc1ccc(S(=O)(=O)Nc2ccccn2)cc1)C(N)=O
- GI50 (786-0): > 100 µM (inactive)
- GI50 (DU-145): > 100 µM (inactive)
- GI50 (Hs-578T): > 100 µM (inactive)
- GI50 (MDA-MB-231): > 100 µM (inactive)

Structure (SMILES): NN1C(=O)C(CCO)S/C1=N/N=C1/SC(CCO)C(=O)N1N (stereo not given)
- GI50 (786-0): > 100 µM (inactive)
- GI50 (HOP-18): > 100 µM (inactive)
- GI50 (LXFL 529): > 100 µM (inactive)

Structure (SMILES): CCOC(=O)C1=C(C)N(c2ccc(OC)cc2)C2(O)C=CC(O)=C3C(=O)c4ccccc4C(=O)C312 (stereo not given)
- GI50 (BT-549): 14 µM (inactive)
- GI50 (DU-145): 14.4 µM (inactive)
- GI50 (Hs-578T): 5.47 µM (inactive)
- GI50 (MDA-MB-231): 14.3 µM (inactive)
- GI50 (T47D): 12.5 µM (inactive)

Structure (SMILES): c1ccc(C(c2ccccc2)[P+](c2ccccc2)(c2ccccc2)c2ccccc2)cc1
- GI50 (HOP-18): 0.369 µM (active)

Structure (SMILES): O=C(/C=C/c1ccccc1)CC1OC(=O)c2ccccc21 (stereo not given)
- GI50 (786-0): > 100 µM (inactive)
- GI50 (HOP-18): 14.9 µM (inactive)
- GI50 (LXFL 529): 46.7 µM (inactive)

Structure (SMILES): CC1=C(C(=O)Nc2cccc(Cl)c2)C(c2ccccc2O)C(C(=O)Nc2cccc(Cl)c2)=C(C)N1
- GI50 (786-0): 15.7 µM (inactive)
- GI50 (LXFL 529): 21.8 µM (inactive)

Structure (SMILES): CCOC(=O)c1cn(CC)c(=O)n2c1nc1ccccc12
- GI50 (786-0): 58.5 µM (inactive)
- GI50 (BT-549): 56.9 µM (inactive)
- GI50 (DU-145): 45.5 µM (inactive)
- GI50 (MDA-MB-231): > 100 µM (inactive)
- GI50 (T47D): 63.5 µM (inactive)

Structure (SMILES): CCOc1ccc(NC(=O)/C(CC(=O)c2c[n+]([O-])c3ccccc3[n+]2[O-])=N\OCCCc2ccccc2)cc1
- GI50 (786-0): > 100 µM (inactive)
- GI50 (LXFL 529): > 100 µM (inactive)
- GI50 (RXF 631): > 100 µM (inactive)

Structure (SMILES): CC1(C)C(N2CCOCC2)CS1(=O)=O (stereo not given)
- GI50 (786-0): > 10 µM (inactive)
- GI50 (BT-549): > 10 µM (inactive)
- GI50 (DU-145): > 10 µM (inactive)
- GI50 (Hs-578T): > 10 µM (inactive)
- GI50 (MDA-MB-231): > 10 µM (inactive)
- GI50 (T47D): > 10 µM (inactive)

Structure (SMILES): Nc1nc2cc(COc3ccc(C(=O)O)cc3)ccc2nc1-c1ccccc1
- GI50 (DU-145): > 10 µM (inactive)
- GI50 (Hs-578T): > 10 µM (inactive)
- GI50 (MDA-MB-231): > 10 µM (inactive)
- GI50 (T47D): > 10 µM (inactive)

Structure (SMILES): CC(=O)NNc1nc(C)c(C(=O)NNC(=O)C(=O)Nc2ccc([N+](=O)[O-])cc2[N+](=O)[O-])s1
- GI50 (LXFL 529): 93.1 µM (inactive)
- GI50 (RXF 631): 68.9 µM (inactive)

Structure (SMILES): CCOC(=O)C1=C(C)N(NC(N)=O)C2(O)CCCC(=O)C12C (stereo not given)
- GI50 (HOP-18): > 100 µM (inactive)
- GI50 (LXFL 529): > 100 µM (inactive)
- GI50 (RXF 631): > 100 µM (inactive)

Structure (SMILES): CC(=O)NC(c1nc2cc(C)c(C)cc2[nH]1)c1nc2cc(C)c(C)cc2[nH]1
- GI50 (BT-549): 23.2 µM (inactive)
- GI50 (DU-145): 20.2 µM (inactive)
- GI50 (Hs-578T): 36.8 µM (inactive)
- GI50 (MDA-MB-231): 26.1 µM (inactive)
- GI50 (T47D): 43 µM (inactive)

Structure (SMILES): CC1(c2sccc2Cl)CC(c2sccc2Cl)=C(C#N)C(=C(C#N)C#N)N1 (stereo not given)
- GI50 (786-0): 18.4 µM (inactive)
- GI50 (BT-549): 17.8 µM (inactive)
- GI50 (DU-145): 16 µM (inactive)
- GI50 (Hs-578T): 21.5 µM (inactive)
- GI50 (MDA-MB-231): 21.9 µM (inactive)
- GI50 (T47D): 14.2 µM (inactive)

Structure (SMILES): COc1ccc(NC(=O)C(=O)C(C(=O)c2ccccc2)C2OC(=O)c3ccccc32)c([N+](=O)[O-])c1 (stereo not given)
- GI50 (786-0): > 100 µM (inactive)
- GI50 (HOP-18): > 100 µM (inactive)
- GI50 (LXFL 529): > 100 µM (inactive)

Structure (SMILES): O=c1cccccc1NCCCCCCCCCNc1cccccc1=O
- GI50 (786-0): 22.1 µM (inactive)
- GI50 (LXFL 529): 8.97 µM (inactive)

Structure (SMILES): COc1cccc2[s+]snc12
- GI50 (786-0): 33.6 µM (inactive)
- GI50 (HOP-18): 41.3 µM (inactive)
- GI50 (LXFL 529): 43.3 µM (inactive)

Structure (SMILES): CSc1nc(SC)c2cnn(CC3CO3)c2n1 (stereo not given)
- GI50 (HOP-18): 20.9 µM (inactive)

Structure (SMILES): COc1cccc2c1C(=O)c1c(O)c3c(c(O)c1C2=O)CC(O)(C(=O)CO)CC3OC1CC(N)C(I)C(C)O1 (stereo not given)
- GI50 (HOP-18): 7.96 µM (inactive)

Structure (SMILES): Cn1c(-c2cccs2)cc(-c2cccs2)c1-c1ccco1
- GI50 (786-0): 69.2 µM (inactive)
- GI50 (BT-549): > 100 µM (inactive)
- GI50 (DU-145): > 100 µM (inactive)
- GI50 (Hs-578T): 26.5 µM (inactive)
- GI50 (MDA-MB-231): 51.4 µM (inactive)
- GI50 (T47D): 1.06 µM (active)

Structure (SMILES): Nc1nc(N)c(N=O)c(OCC2CCCCC2)n1
- GI50 (786-0): 11.6 µM (inactive)
- GI50 (BT-549): 7.82 µM (inactive)
- GI50 (DU-145): 7.45 µM (inactive)
- GI50 (Hs-578T): 6.73 µM (inactive)
- GI50 (MDA-MB-231): 5.02 µM (inactive)
- GI50 (T47D): 5.57 µM (inactive)

Structure (SMILES): Cc1[nH]n(C2=NCCN2)c(=O)c1Cc1ccccc1
- GI50 (786-0): > 100 µM (inactive)
- GI50 (BT-549): > 100 µM (inactive)
- GI50 (Hs-578T): > 100 µM (inactive)
- GI50 (MDA-MB-231): > 100 µM (inactive)
- GI50 (T47D): > 100 µM (inactive)
